molecular target: Carbonic anhydrase 12 (Homo sapiens, UniProt O43570)
Sequence (O43570 whole entry): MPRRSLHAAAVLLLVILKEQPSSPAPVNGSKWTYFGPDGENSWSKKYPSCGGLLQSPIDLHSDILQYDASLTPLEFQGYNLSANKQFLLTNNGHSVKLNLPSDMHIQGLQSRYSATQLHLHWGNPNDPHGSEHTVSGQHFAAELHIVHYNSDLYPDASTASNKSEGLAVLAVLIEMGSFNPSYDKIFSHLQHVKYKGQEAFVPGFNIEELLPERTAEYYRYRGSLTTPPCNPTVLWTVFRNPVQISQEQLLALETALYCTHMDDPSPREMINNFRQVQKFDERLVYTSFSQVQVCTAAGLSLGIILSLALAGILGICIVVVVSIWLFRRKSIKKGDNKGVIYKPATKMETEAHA

Ki [µM] | Compound
0.125 | Nc1cccc(S(N)(=O)=O)c1
0.011 | NNc1ccc(S(N)(=O)=O)cc1
0.085 | Nc1ccccc1S(N)(=O)=O

molecular target: Carbonic anhydrase 14 (Homo sapiens, UniProt Q9ULX7)
Sequence (Q9ULX7 whole entry): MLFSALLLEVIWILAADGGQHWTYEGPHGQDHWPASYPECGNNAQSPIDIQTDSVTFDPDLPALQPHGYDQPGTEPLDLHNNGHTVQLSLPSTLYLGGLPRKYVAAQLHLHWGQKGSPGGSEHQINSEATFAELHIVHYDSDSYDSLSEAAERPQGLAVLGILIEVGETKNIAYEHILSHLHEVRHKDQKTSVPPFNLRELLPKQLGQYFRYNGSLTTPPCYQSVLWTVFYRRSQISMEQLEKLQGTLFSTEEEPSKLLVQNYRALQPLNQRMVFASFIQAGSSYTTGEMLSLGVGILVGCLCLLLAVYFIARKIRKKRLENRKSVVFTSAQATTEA

Ki [µM] | Compound
3.2 | NCc1ccc(S(N)(=O)=O)cc1 [MAFENIDE]
0.015 | Nc1ccc(S(N)(=O)=O)cc1Br
0.28 | Nc1nnc(S(N)(=O)=O)s1
0.076 | Nc1ccc(S(=O)(=O)NCCc2ccc(S(N)(=O)=O)cc2)cc1
0.024 | CCN[C@H]1CN(CCCOC)S(=O)(=O)c2sc(S(N)(=O)=O)cc21 [BRINZOLAMIDE]
3.84 | NS(=O)(=O)c1ccc(CO)cc1
4.8 | Nc1cccc(S(N)(=O)=O)c1
0.245 | Cn1nc(S(N)(=O)=O)sc1=N
0.089 | Nc1nccc(Nc2ccc(S(N)(=O)=O)cc2)n1
0.18 | Nc1ccc(S(N)(=O)=O)cc1F
1.45 | NNc1ccc(S(N)(=O)=O)cc1
0.021 | Nc1ccc(S(N)(=O)=O)cc1Cl
5.4 | Nc1ccc(S(N)(=O)=O)cc1 [SULFANILAMIDE]
6.5 | Nc1ccccc1S(N)(=O)=O
3.26 | NS(=O)(=O)c1ccc(CCO)cc1
0.013 | Nc1ccc(S(=O)(=O)Nc2nnc(S(N)(=O)=O)s2)cc1
0.78 | NS(=O)(=O)c1ccc(C(=O)O)cc1 [CARZENIDE]
